From patent US20160000750A1, “COMBINATION OF EGCG OR METHYLATED EGCG AND A PDE INHIBITOR” (KYUSHU UNIVERSITY, NATIONAL UNIVERSITY CORPORATION, priority 2010, published 2016)

Experiments:
Type in all cases: cell-based
[1] = test system: human multiple myeloma cell line, RPMI8226; assay: Trypan blue cell viability and viable cell count, RPMI8226; settings: vardenafil 5 μM, EGCG 5 μM, 96 hours
Method: Enhancement of the activity of EGCG on multiple myeloma cells by vardenafil was investigated. A human multiple myeloma cell line, RPMI8226, was seeded in a 24-well plate at 5×10^4 cells/mL, and vardenafil was added thereto at a final concentration of 5 μM. After 3 hours, EGCG was added thereto at a final concentration of 5 μM. After 96 hours, cell viability (A) and the number (B) of viable cells were measured by trypan blue staining. The value of a control group of cells not treated with EGCG and vardenafil was defined as 100%. The results are shown in FIG. 8 (n=3, Tukey's test, *: P<0.05, ***: P<0.001).

[2] = test system: human acute myeloid leukemia cell line, HL60; assay: Involvement of 67LR (anti-67LR antibody MLuc5) in cell-killing and cytostatic activity, HL60; settings: HL60, 96-well; vardenafil 5 μM, EGCG 5 μM; 96 hours; without anti-67LR antibody (isotype control mouse IgM)
Method: A trypan blue staining solution was prepared by suspending trypan blue in PBS at a concentration of 1% and was used in investigation of the anti-cancer activity of a combination of EGCG and vardenafil by trypan blue assay. The PBS used was prepared by dissolving 8.0 g of NaCl, 0.2 g of KCl, 1.15 g of Na2HPO4, and 0.2 g of KH2PO4 in 1 L of ultrapure water, followed by autoclave sterilization.
A human multiple myeloma cell line, U266, and a human acute myeloid leukemia cell line, HL60, adjusted to be 5×10^4 cells/mL (U266) and 1×10^4 cells/mL (HL60), respectively, in an RPMI 1640 medium supplemented with 1% FCS were seeded in a 96-well plate (Falcon Co., Ltd.). Vardenafil was added thereto at a final concentration of 5 μM. Immediately after the addition, an anti-67LR monoclonal antibody, MLuc5 (Abcam PLC), was added thereto at a final concentration of 20 μg/mL. In the group of adding an isotype control antibody, mouse IgM (Cosmo Bio Co., Ltd., Tokyo) was added at a final concentration of 20 μg/mL. […]
The plate was returned to the incubator immediately after the addition of EGCG, followed by culturing for 96 hours. […] After 10 minutes, the number of the cells was counted with a hemocytometer. Unstained cells were deemed as viable cells, and the cell viability was determined as a ratio of the number of unstained cells in trypan blue staining to the total number of cells. […]

[3] = test system: human prostate cancer cell line, PC3; assay: Trypan blue cell viability and viable cell count, PC3; settings: vardenafil 5 μM, EGCG 10 μM added after 2 hours, 96 hours
Method: A human prostate cancer cell line, PC3, was subcultured in an RPMI 1640 medium supplemented with 10% fetal calf serum (FCS) at 37° C. under vapor-saturated 5% CO2 conditions. The cells were cultured in the logarithmic growth phase. The RPMI 1640 medium used in the culture was prepared by suspending 10.4 g of an RPMI 1640 medium, 2.38 g of HEPES, 0.5 vial of Penicillin G Potassium for Injection 200000 Unit, 0.1 vial of Streptomycin Sulfate for Injection 1 g, and 2.0 g of NaHCO3 in 1 L of ultrapure water, followed by filter sterilization. Subsequently, the RPMI 1640 medium was supplemented with fetal calf serum (FCS) and was used in cell culture. A trypan blue staining solution was prepared by suspending trypan blue in PBS at a concentration of 1% and was used in investigation of the anti-cancer activity of a combination of EGCG and vardenafil by trypan blue assay. The PBS used was prepared by dissolving 8.0 g of NaCl, 0.2 g of KCl, 1.15 g of Na2HPO4, and 0.2 g of KH2PO4 in 1 L of ultrapure water, followed by autoclave sterilization. […] After 10 minutes, the number of the cells was counted with a hemocytometer. Unstained cells were deemed as viable cells, and the cell viability was determined as a ratio of the number of unstained cells in trypan blue staining to the total number of cells. […]

Measured: cell viability (cell-killing activity)

(−)-epigallocatechin-3-O-gallate [EGCG]
any cytotoxicity was not observed: [1] | [2] | [3]
